5 compounds from patent US20260248927A1, “TARGETED PROTEIN DEGRADATION USING BIFUNCTIONAL COMPOUNDS THAT BIND UBIQUITIN LIGASE AND TARGET MCL-1 PROTEIN” (Captor Therapeutics S.A., priority 2022, published 2026) can be followed below.

Structures can show the parent of a compound that is named as a salt.

The nature of data set [1]: Cell viability assay (CellTiter-Glo), ARH-77. The format is cell-based. The note with it: human, ARH-77 cells (lymphoblast-like, MCL-1 independent), ARH-77, 24 hours, 1% FBS, read-out: Average pCC50 by molecule ARH-77 (converted). The source says:
(§1) The effect of various compounds of the invention on the viability of MV4-11 and ARH-77 cell lines was investigated, using the CTG protocol described below.
(§2) MV4-11 cell lines are derived from acute myeloid leukaemia and it is described in the literature as a MCL-1 dependent cell line, as opposed to lymphoblast-like ARH-77 cell line, which is described as independent of MCL-1 (Tron A E et al. Nat Commun. 2018; 9: 5341; Caenepeel S et al. Cancer Discov. 2018 December; 8(12): 1582-1597).
(§3) Cells (MV4-11 or ARH-77) were seeded on […] in a growth medium with 1% FBS. Next, compound stocks were pre-diluted in DMSO and added directly to the cell culture media (final DMSO concentration: 0.5%). Compound concentrations used in this assay: 1/3 dilutions starting at 30 μM (9 to 12 points). After 24 hours of incubation, cell viability was evaluated using CellTiter-Glo Luminescent Cell Viability Assay (Promega, cat #G7572). The luminescence signal was measured using a CLARIOstar Plus Multi-Mode Microplate Reader (574-590 nm).
(§4) Results were normalized to DMSO control. Collected data were analyzed using GraphPad Prism to calculate pCC50 values.
On the technique in general: ATP-based viability assays read luminescence as a measure of living cells.

Data set [2] has as its target [MCL-1]-[compound of formula (I)]—[CRBN/DDB1] (Homo sapiens, UniProt Q07820+Q96SW2). Description: HTRF ternary complex formation assay. Type of data set: binding. Conditions: hMcl-1 and CRBN, 180 min at 25° C.; read-out: HTRF ternary complex Average pEC50 by molecule (converted). The protocol: The effect of the bifunctional compounds of the invention on the formation of a ternary complex composed of [MCL-1]-[compound of formula (I)]—[CRBN/DDB1] was investigated with HTRF ternary complex assay.
Mix of protein solution was prepared: • 48 nM hMcl-1 and 105.6 nM CRBN were prepared in PPI Europium detection buffer with 2 mM DTT. • Acceptor and donor stock solutions were diluted 100 times in PPI Europium detection buffer. Equal volumes of both reagents were mixed. Finally giving 3 nM of Streptavidin-Eu cryptate ([…]) and 6.67 nM of Anti-6×his-d2 ([…]).
5 μl of protein mix was dispensed to all wells. The tested compounds in dose-response were dispensed onto a white 384-well low volume plate (Greiner, 784075). DMSO was backfilled to all wells, resulting in a final DMSO content of 0.5%. Wells containing only DMSO served as a background. Next, 5 μl of solution with donor and acceptor was added to the wells.
The plate was sealed with transparent film and shaken using a VibroTurbulator for 60 sec at level 3. The plate was then spun down shortly (10 s, 1000 rcf) and incubated at 25° C. for 180 min.
The read-out was performed with plate reader (Pherastar, BMG Labtech) in time resolved fluorescence mode. Filterset: TR 337 665 620.
The results were analyzed as follows: • 1) an average of fluorescence for background signal was calculated and used as a negative control; • 2) raw fluorescence values for tested compounds were normalized against negative controls; • 3) bell shape curve was fitted to a gaussian distribution using a non-linear least squares Gauss-Newton algorithm; • 4) EC50 and pEC50 values were determined.

In another data set the test system is MV4-11 cells. Description: Cell viability assay (CellTiter-Glo), MV4-11. The format is cell-based. The note with it: Homo sapiens, MV4-11, 24 hours, 1% FBS, read-out: Average pCC50 by molecule MV4-11 (converted).
From the text: as §1, §2, §3, §4

Chain of [MCL-1]-[compound of formula (I)]—[CRBN/DDB1] (Q07820 whole entry): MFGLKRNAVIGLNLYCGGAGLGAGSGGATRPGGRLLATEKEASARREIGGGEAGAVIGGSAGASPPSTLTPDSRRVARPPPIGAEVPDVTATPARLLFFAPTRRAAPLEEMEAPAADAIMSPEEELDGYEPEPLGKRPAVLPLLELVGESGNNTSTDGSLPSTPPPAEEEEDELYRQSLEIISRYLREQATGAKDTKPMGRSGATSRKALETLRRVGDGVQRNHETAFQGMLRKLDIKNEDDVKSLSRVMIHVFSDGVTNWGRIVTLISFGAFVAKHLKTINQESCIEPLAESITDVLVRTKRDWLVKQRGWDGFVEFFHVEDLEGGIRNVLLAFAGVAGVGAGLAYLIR
Chain of [MCL-1]-[compound of formula (I)]—[CRBN/DDB1] (Q96SW2 whole entry): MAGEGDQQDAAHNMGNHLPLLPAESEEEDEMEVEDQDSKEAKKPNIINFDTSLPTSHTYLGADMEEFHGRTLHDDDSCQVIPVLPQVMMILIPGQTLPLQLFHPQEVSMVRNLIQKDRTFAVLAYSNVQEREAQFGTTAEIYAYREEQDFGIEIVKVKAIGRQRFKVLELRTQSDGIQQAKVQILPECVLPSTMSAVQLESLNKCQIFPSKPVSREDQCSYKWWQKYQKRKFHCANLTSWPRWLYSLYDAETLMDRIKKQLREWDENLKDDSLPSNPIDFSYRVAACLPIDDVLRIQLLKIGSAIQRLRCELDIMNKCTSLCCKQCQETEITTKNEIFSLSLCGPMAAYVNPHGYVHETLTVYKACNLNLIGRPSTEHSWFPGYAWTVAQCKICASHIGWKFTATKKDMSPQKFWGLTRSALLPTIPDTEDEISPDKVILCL
Chain of [MCL-1]-[compound of formula (I)]—[CRBN/DDB1] (Q16531 whole entry partner): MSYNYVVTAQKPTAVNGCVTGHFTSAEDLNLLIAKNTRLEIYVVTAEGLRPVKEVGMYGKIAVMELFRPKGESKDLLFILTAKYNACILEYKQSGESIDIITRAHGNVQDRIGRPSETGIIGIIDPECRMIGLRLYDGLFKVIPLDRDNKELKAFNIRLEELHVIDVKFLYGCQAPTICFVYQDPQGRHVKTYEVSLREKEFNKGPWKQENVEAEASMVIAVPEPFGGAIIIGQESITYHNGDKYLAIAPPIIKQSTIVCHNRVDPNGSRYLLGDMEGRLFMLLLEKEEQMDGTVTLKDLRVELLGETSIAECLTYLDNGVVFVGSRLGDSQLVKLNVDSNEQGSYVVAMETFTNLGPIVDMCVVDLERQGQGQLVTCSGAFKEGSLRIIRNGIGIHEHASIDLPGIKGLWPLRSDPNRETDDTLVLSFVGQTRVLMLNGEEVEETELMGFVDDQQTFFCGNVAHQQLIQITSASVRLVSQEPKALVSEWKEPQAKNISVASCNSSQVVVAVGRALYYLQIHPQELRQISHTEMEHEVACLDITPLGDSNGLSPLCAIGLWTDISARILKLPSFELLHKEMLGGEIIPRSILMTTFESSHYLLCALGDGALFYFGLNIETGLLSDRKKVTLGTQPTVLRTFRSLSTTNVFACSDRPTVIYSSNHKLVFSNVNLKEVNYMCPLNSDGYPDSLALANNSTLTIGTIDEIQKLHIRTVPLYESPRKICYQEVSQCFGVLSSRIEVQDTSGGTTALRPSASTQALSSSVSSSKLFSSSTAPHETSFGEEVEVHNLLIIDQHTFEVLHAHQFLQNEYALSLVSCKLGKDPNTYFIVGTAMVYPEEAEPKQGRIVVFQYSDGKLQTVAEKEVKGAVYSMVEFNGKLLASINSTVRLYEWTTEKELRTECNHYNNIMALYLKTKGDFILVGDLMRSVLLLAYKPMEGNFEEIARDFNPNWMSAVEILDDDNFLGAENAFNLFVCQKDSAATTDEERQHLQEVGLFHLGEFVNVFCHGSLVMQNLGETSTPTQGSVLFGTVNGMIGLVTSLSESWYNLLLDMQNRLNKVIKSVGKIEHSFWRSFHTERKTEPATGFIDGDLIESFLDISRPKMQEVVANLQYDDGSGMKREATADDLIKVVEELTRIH

On to `Cc1nn(C)c(C)c1-c1c(Cl)ccc2c(CCCOc3cccc4cc(F)ccc34)c(C(=O)O)n(CCN3C(C)CN(C(=O)COc4cccc5c4CN(C4CCC(=O)NC4=O)C5=O)CC3C)c12` (stereo not drawn) [Compound 28, 6-Chloro-1-{2-[4-(2-{[2-(2,6-dioxopiperidin-3-yl)-1-oxo-2,3-dihydro-1H-isoindol-4-yl]oxy}acetyl)-2,6-dimethylpiperazin-1-yl]ethyl}-3-{3-[(6-fluoronaphthalen-1-yl)oxy]propyl}-7-(1,3,5-trimethyl-1H-pyrazol-4-yl)-1H-indole-2-carboxylic acid], for which, in data set [1], the CC50 at 24 h is > 10000 nM. In addition, the EC50 in data set [2] was < 100 nM. Moreover, the CC50 in the data set with MV4-11 cells is < 316 nM.
In the same order, the values of `CCc1nn2c(c1-c1c(Cl)ccc3c(CCCOc4cccc5cc(F)ccc45)c(C(=O)O)n(CCN4CCN(C(=O)COc5cccc6c5CN(C5CCC(=O)NC5=O)C6=O)CC4)c13)COCC2` (stereo not drawn) [Compound 36, 6-Chloro-1-(2-(4-(2-((2-(2,6-dioxopiperidin-3-yl)-1-oxoisoindolin-4-yl)oxy)acetyl)piperazin-1-yl)ethyl)-7-(2-ethyl-6,7-dihydro-4H-pyrazolo[5,1-c][1,4]oxazin-3-yl)-3-(3-((6-fluoronaphthalen-1-yl)oxy)propyl)-1H-indole-2-carboxylic acid] are > 10000 nM, < 316 nM and < 100 nM.
In the same order, the values of `Cc1nn(C)c(C)c1-c1c(Cl)ccc2c(CCCOc3cccc4cc(F)ccc34)c(C(=O)O)n(CCN3CCC(CN4CCN(c5cc6c(cc5F)C(=O)N(C5CCC(=O)NC5=O)C6)CC4)CC3)c12` (stereo not drawn) [Compound 144, 6-Chloro-1-(2-(4-((4-(2-(2,6-dioxopiperidin-3-yl)-6-fluoro-1-oxoisoindolin-5-yl)piperazin-1-yl)methyl)piperidin-1-yl)ethyl)-3-(3-((6-fluoronaphthalen-1-yl)oxy)propyl)-7-(1,3,5-trimethyl-1H-pyrazol-4-yl)-1H-indole-2-carboxylic acid] are > 3160 nM, < 31.6 nM and < 100 nM.
On the same counts, the results for `COCCOCCn1nc(C)c(-c2c(Cl)ccc3c(CCCOc4cccc5cc(F)ccc45)c(C(=O)O)n(CCN4CCN(C(=O)COc5cccc6c5CN(C5CCC(=O)NC5=O)C6=O)CC4)c23)c1C` (stereo not drawn) [Compound 147, 1-(2-(2-Carboxy-6-chloro-3-(3-((6-fluoronaphthalen-1-yl)oxy)propyl)-7-(1-(2-(2-methoxyethoxy)ethyl)-3,5-dimethyl-1H-pyrazol-4-yl)-1H-indol-1-yl)ethyl)-4-(2-((2-(2,6-dioxopiperidin-3-yl)-1-oxoisoindolin-4-yl)oxy)acetyl)piperazin-1-ium trifluoroacetate] are > 31600 nM, < 100 nM and < 100 nM.
Consider `Cc1nn(C)c(C)c1-c1c(Cl)ccc2c(CCCOc3cccc4cc(F)ccc34)c(C(=O)O)n(CCN3CCN(C(=O)c4cc5cc(C6CCC(=O)NC6=O)ccc5n4C)CC3)c12` (stereo not drawn) [Compound 148, 6-Chloro-1-(2-(4-(5-(2,6-dioxopiperidin-3-yl)-1-methyl-1H-indole-2-carbonyl)piperazin-1-yl)ethyl)-3-(3-((6-fluoronaphthalen-1-yl)oxy)propyl)-7-(1,3,5-trimethyl-1H-pyrazol-4-yl)-1H-indole-2-carboxylic acid], for which the CC50 at 24 h in data set [1] is > 3160 nM. The EC50 in data set [2] is < 31.6 nM. In addition, the CC50 in the data set with MV4-11 cells is < 316 nM.
